Test results published in patent US20090069321A1, “CYANOMETHYL SUBSTITUTED N-ACYL TRYPTAMINES” (priority 2007, published 2009).
pIC50: −log10 of the molar value.

Biological target: T1, human FSH receptor (Homo sapiens, UniProt P23945)
T1 construct: expressed in transfected cells; host or cells: CHO cells (hFSHR clone 16)
T1 sequence (P23945 18-695): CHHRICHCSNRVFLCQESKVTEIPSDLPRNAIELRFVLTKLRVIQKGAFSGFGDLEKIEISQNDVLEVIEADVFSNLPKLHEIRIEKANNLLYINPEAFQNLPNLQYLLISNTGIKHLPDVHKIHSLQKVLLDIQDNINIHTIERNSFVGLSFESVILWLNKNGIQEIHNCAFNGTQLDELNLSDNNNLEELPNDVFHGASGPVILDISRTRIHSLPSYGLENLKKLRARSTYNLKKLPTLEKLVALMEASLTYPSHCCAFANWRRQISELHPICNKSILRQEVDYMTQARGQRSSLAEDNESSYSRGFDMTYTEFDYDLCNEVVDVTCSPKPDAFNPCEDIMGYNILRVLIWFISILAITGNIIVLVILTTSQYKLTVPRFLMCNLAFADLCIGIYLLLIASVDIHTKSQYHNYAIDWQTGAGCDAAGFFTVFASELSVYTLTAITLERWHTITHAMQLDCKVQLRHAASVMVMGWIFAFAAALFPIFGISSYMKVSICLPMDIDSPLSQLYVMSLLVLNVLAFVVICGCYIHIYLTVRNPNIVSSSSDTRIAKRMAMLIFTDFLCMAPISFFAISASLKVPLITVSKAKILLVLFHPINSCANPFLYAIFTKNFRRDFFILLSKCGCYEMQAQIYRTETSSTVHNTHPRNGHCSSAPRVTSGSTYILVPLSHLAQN
Assay: HTRF assay for measuring cAMP in cells (FSH antagonism)
Assay type: cell-based
Conditions: hFSHR clone 16 cells (CHO cells stably transfected with the human FSH receptor); in the presence of 1e-9 mol/l hFSH; 37° C. for 2 h; read-out: IC50, FSH antagonistic effect in the HTRF assay
Protocol: HTRF Assay for Measuring cAMP in Cells
The method is based on a competitive immunoassay between native cAMP, which has been produced by the cells, and cAMP which is labelled with cAMPD2 conjugate. The tracer binding was visualized by a monoclonal antibody, anti-cAMP labelled with cryptate [HTRF=homogeneous time-resolved fluorescence].
The specific signal is inversely proportional to the cAMP concentration of the samples employed.
The 665 nm/620 nm fluorescence ratio was evaluated.
The following material was used: 96-well plates for the tissue culture, 96-well plates with black edge and black base (e.g. Fluotrac 600 from Greiner), 96-well plates for the substance dilutions of polypropylene and cAMP Femtomolar (4000wells Kit, CIS Bio International # 62AM5PEJ).
The following reagents were used: BSA (bovine serum albumin) Fraction V protease-free, IBMX (3-isobutyl-1-methylxanthine), hFSH (human follicle stimulating hormone), Triton X-100 analytical grade, potassium fluoride analytical grade, G 418 (Geneticin) and Accutase.
Buffer 1 (washing and testing buffer) contained PBS, 1 mM CaCl2, 1 mM MgCl2, 0.2% glucose; 0.1% BSA, 1 mM IBMX.
Buffer 2 (2× lysis buffer) contained 1% Triton X-100 in PBS (without CaCl2 and MgCl2).
Buffer 3 (assay buffer) contained 50 mM potassium phosphate buffer (pH 7.0); 800 mM potassium fluoride; 0.2% BSA (always added fresh).
On day 1, the cells were seeded in 96-well plates (3×10^4 cells per well hFSHR clone 16 cells (CHO cells stably transfected with the human FSH receptor in 150 μl of medium). The next day, test substance dilutions were made up. For this purpose, all the substances were diluted in ice-cold buffer 1 (with or without hFSH), and the substance dilutions were placed on ice until applied to the cells.
The cell supernatant was then aspirated off, and the cells were washed 2× with 200 μl of buffer 1. The cells were treated with 60 μl of the appropriate substance concentrations at 37° C. for 2 h. The cells were then lysed with 60 μl of buffer 2 (put onto the supernatant) (on a plate shaker at RT for 30 min).
The test conjugates (cAMP-D2 and anti-cAMP cryptate, CIS Bio) were diluted in buffer 3 in accordance with the manufacturers' information. The actual mixture for measurement was pipetted into a black 96-well plate (in each case 15 μl of the cell lysate diluted with 35 μl of buffer 1; firstly 25 μl of cAMP-D2 conjugate were pipetted and, after 10 min, 25 μl of the anti-cAMP cryptate were added). This is followed by incubation at RT for 90 minutes. The measurement was carried out in a PheraStar (BMG).
Tissue Culture Conditions
Dose-effect curve (hFSH) for the human receptor: 1e-8, 3e-9, 1e-9, 3e-10, 1e-10, 3e-11, 1e-11, 3e-12 mol/l.
The test substances were employed in suitable dilutions in the absence (test for agonism) and in the presence of 1e-9 mol/l hFSH.
The values of the well ratio were averaged and then entered directly in SigmaPlot versus the concentrations. The maximum and minimum values were determined for each plate, and half the difference is to be regarded as IC50.

| pIC50 | SMILES |
| --- | --- |
| 5.46 | CNC(=O)c1cc(F)cc(-c2ccc(OC(C)C)c(C(=O)NC(CC#N)Cc3c[nH]c4ccccc34)c2)c1 (stereo not shown) [Example 1, 5′-Fluoro-4-isopropoxy-biphenyl-3,3′-dicarboxylic acid 3-{[2-cyano-1-(1H-indol-3-ylmethyl)-ethyl]-amide}3′-methylamide] |
| 6.60 | Cc1cc(C(N)=O)ccc1C#Cc1ccc(OC(F)(F)F)c(C(=O)NC(CC#N)Cc2c[nH]c3ccccc23)c1 (stereo not shown) [Example 4, 5-(4-Carbamoyl-2-methylphenylethynyl)-N-[2-cyano-1-(1H-indol-3-ylmethyl)-ethyl]-2-trifluoromethoxy-benzamide] |
| 7.10 | CC(C)Oc1ccc(-c2ccc(C(=O)N3CCOCC3)c(Cl)c2)cc1C(=O)NC(CC#N)Cc1c[nH]c2ccccc12 (stereo not shown) [Example 6, 3′-Chloro-4-isopropoxy-4′-(morpholine-4-carbonyl)-biphenyl-3-carboxylic acid [2-cyano-1-(1H-indol-3-ylmethyl)-ethyl]-amide] |
| 6.70 | CC(C)Oc1ccc(C#Cc2ccc(C(N)=O)cc2)cc1C(=O)NC(CC#N)Cc1c[nH]c2ccccc12 (stereo not shown) [Example 8, 5-(4-Carbamoyl-phenylethynyl)-N-[2-cyano-1-(1H-indol-3-ylmethyl)-ethyl]-2-isopropoxy-benzamide] |
| 6.12 | CNC(=O)c1ccc(C#Cc2ccc(OC(C)C)c(C(=O)NC(CC#N)Cc3c[nH]c4ccccc34)c2)cc1 (stereo not shown) [Example 9, N-[2-Cyano-1-(1H-indol-3-ylmethyl)-ethyl]-2-isopropoxy-5-(4-methylcarbamoyl-phenylethynyl)-benzamide] |
| 5.46 | CNC(=O)c1cccc(C#Cc2ccc(OC(C)C)c(C(=O)NC(CC#N)Cc3c[nH]c4ccccc34)c2)c1 (stereo not shown) [Example 10, N-[2-Cyano-1-(1H-indol-3-ylmethyl)-ethyl]-2-isopropoxy-5-(3-methylcarbamoyl-phenylethynyl)-benzamide] |
| 5.00 | CNC(=O)c1ccccc1C#Cc1ccc(OC(C)C)c(C(=O)NC(CC#N)Cc2c[nH]c3ccccc23)c1 (stereo not shown) [Example 11, N-[2-Cyano-1-(1H-indol-3-ylmethyl)-ethyl]-2-isopropoxy-5-(2-methylcarbamoyl-phenylethynyl)-benzamide] |
